Measured values as given in ChEMBL document CHEMBL1201862, “PubChem BioAssay data set” (2004).
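Method: 48-hour compound exposure of cells in 96-well plates, five concentrations, linear interpolation of endpoints. Here, GI50 denotes the concentration required for 50% inhibition of growth.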 Active and inactive are the calls of the source. No stated cut-off is given here; in the data, active = GI50 up to about 1.1 µM and inactive = higher.

What was measured:
Assay in all cases: growth of human tumour cells (NCI), 48 h
[1] = system: HCC 2998
[2] = system: OVCAR-5
[3] = system: NCI-H23
[4] = system: TK-10
[5] = system: NCI-H522
[6] = system: CAKI-1
[7] = system: SF-295
[8] = system: RPMI-8226
[9] = system: HL-60
[10] = system: SNB-75
[11] = system: SK-OV-3
[12] = system: M14
[13] = system: NCI-H460
[14] = system: ACHN
[15] = system: IGROV-1
[16] = system: CCRF-CEM

Measured: GI50

Nc1ncnc2c1ncn2[C@]1(CO)C=C(CO)C(O)C1O (some centres not stated)
inactive: [1] > 100 µM | [2] 80.4 µM | [3] > 100 µM | [4] > 100 µM | [5] > 100 µM | [6] > 100 µM | [7] > 100 µM | [8] > 100 µM | [9] > 100 µM | [10] > 100 µM | [11] > 100 µM | [12] > 100 µM | [13] > 100 µM | [14] > 100 µM

CC1(C)OC2CC3COC(=O)C3CC2O1 (configuration not stated)
inactive: [15] > 100 µM | [1] > 100 µM | [2] > 100 µM | [3] > 100 µM | [4] > 100 µM | [5] > 100 µM | [6] > 100 µM | [7] > 100 µM | [8] > 100 µM | [9] > 100 µM | [10] > 100 µM | [11] > 100 µM | [12] > 100 µM | [13] > 100 µM | [16] > 100 µM | [14] > 100 µM

COc1cc(C(C)O)c[n+](CCC2CNc3ccccc32)c1 (configuration not stated)
inactive: [15] > 100 µM | [1] > 100 µM | [3] > 100 µM | [5] > 100 µM | [6] > 100 µM | [7] > 100 µM | [8] > 100 µM | [9] > 100 µM | [10] > 100 µM | [12] > 100 µM | [13] > 100 µM | [16] > 100 µM | [14] > 100 µM

C=C(Br)C(C)(Cl)CCC(Br)C(C)(C)Br (configuration not stated)
inactive: [15] > 100 µM | [2] 37.2 µM | [3] 72.8 µM | [4] > 100 µM | [5] 43.8 µM | [6] > 100 µM | [7] 47.2 µM | [8] 25.9 µM | [9] 19.9 µM | [10] 46 µM | [11] > 100 µM | [12] 50.4 µM | [13] 47.5 µM | [16] 22.5 µM | [14] > 100 µM

CCOC(=N)/C(=C1\OC(=N)C(c2ccc(Cl)cc2)=C1O)c1ccc(Cl)cc1
inactive: [15] 28.9 µM | [1] 18.1 µM | [2] 19.4 µM | [3] 15.3 µM | [4] 28.1 µM | [5] 15 µM | [6] 23.2 µM | [7] 25.3 µM | [8] 14.8 µM | [9] 17.3 µM | [10] 18.8 µM | [11] 36.5 µM | [12] 17.4 µM | [13] 21.6 µM | [16] 18.2 µM | [14] 21.3 µM

Cc1ccc(S(=O)(=O)OCC23CCC(C2)C2CC23)cc1 (configuration not stated)
inactive: [15] > 100 µM | [1] > 100 µM | [2] > 100 µM | [3] > 100 µM | [4] > 100 µM | [6] > 100 µM | [7] > 100 µM | [8] 90.4 µM | [9] 31.6 µM | [11] > 100 µM | [12] > 100 µM | [13] > 100 µM | [16] > 100 µM | [14] > 100 µM

CC(=O)O/N=C/c1ncccc1CO
inactive: [15] > 100 µM | [2] > 100 µM | [3] > 100 µM | [4] > 100 µM | [5] > 100 µM | [6] > 100 µM | [7] > 100 µM | [9] > 100 µM | [10] > 100 µM | [11] > 100 µM | [12] > 100 µM | [13] > 100 µM | [16] > 100 µM | [14] > 100 µM

Cc1ccc(NC(=O)CCc2nc(N)nc(N)c2-c2ccccc2)cc1C
inactive: [15] > 100 µM | [1] > 100 µM | [2] > 100 µM | [3] > 100 µM | [4] > 100 µM | [5] > 100 µM | [6] > 100 µM | [7] > 100 µM | [8] > 100 µM | [9] > 100 µM | [10] 58.7 µM | [11] > 100 µM | [12] > 100 µM | [13] > 100 µM | [16] > 100 µM | [14] > 100 µM

COc1cc2nc(NCCCCCNC(=O)c3ccco3)nc(N)c2cc1OC
inactive: [15] 41.1 µM | [1] 19.4 µM | [2] 38.3 µM | [3] 87.7 µM | [4] 53.1 µM | [5] 25.4 µM | [6] 42.6 µM | [7] 37.2 µM | [8] 38 µM | [9] 21.4 µM | [10] 22.6 µM | [11] 32.4 µM | [12] 18.5 µM | [13] 32 µM | [16] 28.5 µM | [14] 52.5 µM

CC(C)c1c2[nH]c3ccccc3c2c(C(C)C)c2[nH]c3ccccc3c12
inactive: [15] > 100 µM | [1] > 34.8 µM | [2] 47.5 µM | [3] > 100 µM | [4] > 100 µM | [5] > 78.7 µM | [6] > 76.6 µM | [7] > 65.9 µM | [8] 17.7 µM | [9] 16.5 µM | [10] > 89.7 µM | [11] > 100 µM | [12] > 74.8 µM | [13] > 57.7 µM | [16] > 52.5 µM | [14] 91.8 µM

CN(C)C(=O)c1ccc([N+](=O)[O-])cc1
inactive: [15] > 100 µM | [1] > 100 µM | [2] > 100 µM | [3] > 100 µM | [4] > 100 µM | [5] > 100 µM | [6] > 100 µM | [7] > 100 µM | [9] > 100 µM | [10] > 100 µM | [11] > 100 µM | [12] > 100 µM | [13] > 100 µM | [16] > 100 µM | [14] > 100 µM

Nc1nc2c3c(ncn3CC(O)CO2)n1 (configuration not stated)
inactive: [15] > 100 µM | [1] > 100 µM | [2] > 100 µM | [3] > 100 µM | [4] > 100 µM | [5] > 100 µM | [6] > 100 µM | [7] > 100 µM | [8] > 100 µM | [9] > 100 µM | [10] 10.8 µM | [11] > 100 µM | [12] > 100 µM | [13] > 100 µM | [16] > 100 µM | [14] > 100 µM

N#C/C(=C\c1ccc(O)c(O)c1)c1c(C#N)c(N)nn1-c1ccccc1
inactive: [15] 4.17 µM | [1] 9.66 µM | [2] 33 µM | [3] 7.43 µM | [4] 21.8 µM | [5] 3.32 µM | [6] 1.59 µM | [7] 15.7 µM | [9] 7.85 µM | [10] 13.3 µM | [11] 12.9 µM | [12] 9.29 µM | [13] 10.8 µM | [16] 4.11 µM | [14] 8 µM

CCOC(=O)[C@H]1Nc2ccc(Cl)cc2[C@H]2c3ccccc3O[C@H]21
inactive: [15] > 100 µM | [1] > 100 µM | [2] > 100 µM | [3] > 10 µM | [4] 39.8 µM | [5] > 100 µM | [6] > 100 µM | [7] 72.1 µM | [8] 45.5 µM | [10] 47.4 µM | [12] 41.2 µM | [13] > 100 µM | [14] > 100 µM

O=C(N/C(=C\c1ccc(/C=C(\NC(=O)c2ccccc2)c2nc3c(O)nc(S)nc3[nH]2)cc1)c1nc2c(O)nc(S)nc2[nH]1)c1ccccc1
inactive: [15] > 100 µM | [1] > 100 µM | [2] > 100 µM | [3] 55.7 µM | [4] > 100 µM | [5] 14.6 µM | [6] > 100 µM | [7] > 100 µM | [8] 29.4 µM | [10] 26.4 µM | [11] > 100 µM | [12] > 100 µM | [13] > 100 µM | [16] 26.2 µM | [14] 95.7 µM

O=C(C[n+]1ccccc1)N/N=C(/CCC(=O)N(Cc1ccccc1)Cc1ccccc1)CC(=O)c1ccccc1
inactive: [15] > 100 µM | [1] > 100 µM | [2] > 100 µM | [3] > 100 µM | [4] > 100 µM | [5] > 100 µM | [6] > 100 µM | [7] > 100 µM | [8] > 100 µM | [9] > 100 µM | [10] > 100 µM | [12] > 100 µM | [13] > 100 µM | [16] > 100 µM | [14] > 100 µM

CC12O[C@H](c3ccccc3)[C@H](c3ccccc3)N1C(=O)C1(C(=O)OCc3ccccc3)CC12 (some centres not stated)
inactive: [15] > 100 µM | [1] > 100 µM | [2] > 100 µM | [5] 39.1 µM | [6] > 100 µM | [7] > 100 µM | [9] 32.4 µM | [10] > 100 µM | [11] > 100 µM | [12] 64.7 µM | [13] > 100 µM | [16] 28.6 µM | [14] 60.3 µM

O=C(Nc1c(O)[nH]c(=S)[nH]c1=O)c1ccco1
inactive: [15] > 100 µM | [2] > 100 µM | [3] > 100 µM | [4] > 100 µM | [5] > 100 µM | [6] > 100 µM | [7] > 100 µM | [8] > 100 µM | [9] > 100 µM | [10] > 100 µM | [11] > 100 µM | [12] > 100 µM | [13] > 100 µM | [16] > 100 µM | [14] > 100 µM
